How the values were obtained:
[1] = test system: IL-3C-induced intestinal mast cell responses and peripheral basophilia; experiment: IL-3C treatment of Rag1-deficient mice; format: in vivo, mouse; settings: MZ 2 mg every day (FIG. 3G)
Procedure: Methods for maintenance, recovery, infection and isolation of Trichinella larvae were performed as previously described (Urban, et al., 2000. J Immunol 164:2046-2052). Mice were infected with 500 Trichinella muscle larvae by oral gavage and were treated with vehicle (1:5 DMSO to PBS) or 2-3 mg of MZ i.p. daily; mice were sacrificed between 10-11 days post-infection. At necropsy, single cell suspensions of mLNs and spleens were prepared as previously described (Giacomin, et al., 2012. Journal of immunology (Baltimore, Md.: 1950) 189:4371-4378) for basophil and mast cell analysis. Blood was collected and serum was isolated for analysis of Mcpt1 and IgE. Sections (1 cm) of small intestine (jejunum) were collected for real-time PCR and histological analysis. Remaining sections of small intestine were slit lengthwise, rinsed in PBS, and placed in HBSS for 4 hours at 37° C. and adult worms were quantified by microscopic analysis as previously described (Urban, et al., 2000. J Immunol 164:2046-2052). Rag1^−/− mice were injected (i.p.) with a combination of recombinant IL-3 (1 μg) and α-IL-3 antibody (0.5 μg) (BioLegend: clone MP2-8F8) in 200 μl PBS every 3 days for 7-10 days. IL-3C-treated mice were treated with MZ (2 mg) or vehicle (DMSO) every day.

[2] = test system: human CD34+ progenitor cells (mast cell development); experiment: Human mast cell cultures from blood CD34+ progenitor cells; format: cell-based; settings: human CD34+ cells with SCF, consistent across 5 donors
Excerpt: Blood from healthy human donors was obtained from the New York Blood Center under protocols approved by the Rutgers Institutional Review Boards (IRB). Peripheral blood cells were isolated using a Ficoll gradient. CD34^+ cells were purified using a CD34 MicroBead isolation kit according to the manufacturer's protocol (Miltenyi Biotec, 130-048-702). 25-50×10^3 CD34^+ cells were placed in methocult ([…]) supplemented with stem cell factor (SCF), IL-6 and IL-3 as described previously (Saito, et al., 2006. Nat Protoc 1:2178-2183). Mast cell populations were evaluated on day 14 post-culture.

[3] = test system: food allergy-induced mast cell responses; experiment: Food allergy-like disease (OVA sensitization and challenge); format: in vivo, mouse; settings: OVA sensitized and challenged mice
Procedure: RNA from sections of small intestine was isolated by homogenization in TRIzol (Invitrogen) followed by phenol-chloroform extraction and isopropanol precipitation. cDNA was generated per standard protocol with Superscript reverse transcriptase (Invitrogen) and used as input for real-time PCR. Real-time data were analyzed using the ΔΔCT method using SYBR Green chemistry (Applied Biosystems) with β-actin serving as the endogenous housekeeping gene. All reactions were run on an ABI 7500 Fast Real-Time PCR System (Applied Biosystems). Samples were normalized to naïve controls. The following QuantiTech primer assays from Qiagen were used: Mcpt1 (QT00157864), IL-4 (QT00160678), IL-9 (QT00107555), Arg1 (QT00134288), […] (QT00254359), Car1 (QT01058113) and Car2 (QT00494592). Single cell suspensions were made from mesenteric, or skin draining lymph nodes. Lymph node cells were cultured in RPMI complete medium and treated with and without anti-CD3 (BD Pharmingen: clone 145-2C11) and anti-CD28 antibodies (BD Pharmingen: clone 37.51) for 72 hours. Standard sandwich ELISA (eBioscience) was performed to measure IL-4 (clones 11B11 and BVD6-24G2), IL-5 (clones TRFK5 and TRFK4) and IL-13 (clones eBio13A and eBio1316H) levels in the cell-free supernatants. Serum quantities of Mcpt1 and IgE were measured by commercial sandwich ELISA kits (BD Biosciences, eBioscience). […]

Aspergillus fumigatus = Aspergillus fumigatus (FLARE conidia) lung infection; format: in vivo, mouse; settings: A. fumigatus-infected mice, 2-3 mg MZ i.p. daily, 72 hours post-infection (FIGS. 3H-3J)
Procedure: A. fumigatus strain Af293 was grown on glucose minimal media (GMM) agar plates for 3 days or Sabouraud dextrose agar (SDA) for 7-10 days at 37° C., respectively. Conidia were harvested by adding 0.01% Tween 80 to plates and gently scraping conidia from the plates using a cell scraper. Conidia were then filtered through sterile Miracloth, were washed and resuspended in phosphate buffered saline (PBS), and counted on a hemocytometer. FLARE conidia were prepared as previously described (Espinosa, et al., 2014. PLOS Pathog 10:e1003940). Mice were challenged with 5×10^7 A. fumigatus conidia intratracheally (i.t.) as described previously (Espinosa, et al., 2014. PLOS Pathog 10:e1003940). Mice were treated with vehicle (1:5 DMSO to PBS) or 2-3 mg of MZ i.p. daily and sacrificed 72 hours post-infection. Bronchoalveolar lavage (BAL) fluid was collected by washing the lungs with 2 mL of PBS containing 0.05M EDTA. After collection of the BAL fluid, lung samples were minced in RPMI containing 100 units/mL of collagenase (Gibco) and incubated at 37° C. for 60 minutes, disrupted and filtered. Subsequently, red blood cells were lysed using a Tris ammonium chloride solution. Analysis of neutrophils was conducted using a panel of cell surface markers: CD45, CD11b, and Ly6G as previously described (Espinosa, et al., 2014. PLOS Pathog 10:e1003940). […]

CC(=O)/N=c1/sc(S(N)(=O)=O)nn1C [MZ, methazolamide]
IL-3C-induced basophilia [1]: no effect
intestinal mast cell responses [1]: significantly reduced
percentages of mast cells ([2]; IL-6, IL-3, day 14 (FIGS. 4L-4M)): significantly reduced
total numbers of mast cells ([2]; IL-6, IL-3, day 14 (FIGS. 4L-4N)): significantly reduced
mast cell responses (serum Mcpt1, intestinal mcpt1 expression, intestinal mast cells by histology) ([3]; 2-3 mg MZ i.p. daily (FIG. 4A-D)): significantly decreased
serum IgE levels ([3]; 2-3 mg MZ i.p. daily (FIG. 4E)): significantly increased
fungal clearance (Aspergillus fumigatus): increased
neutrophil responses (Aspergillus fumigatus): increased
